Measured values reported in patent US8716284B2, “Adamantyl diamide derivatives and uses of same” (H. Lundbeck A/S, priority 2008, dated 2014).

biological target: T1, rat metabotropic glutamate receptor 5 (mGluR5) (Rattus norvegicus, UniProt P31424); assay: Calcium mobilization assay (FLIPR) for negative or positive allosteric activity, HEK 293 cells; assay type: cell-based; settings: HEK293, negative allosteric modulation, inhibition of EC80 glutamate response; read-out: FLIPR maximum inhibition
T1 construct: expressed in transfected cells; host or cells: HEK 293
Description: The cDNA for rat metabotropic glutamate receptor 5 (mGluR5) was a generous gift from S. Nakanishi (Kyoto University, Kyoto, Japan). The mGluR5 was stably expressed in a HEK 293 cell line and grown in Dulbecco's Modified Eagle Medium (DMEM) (Invitrogen, Carlsbad, Calif.) with supplements (10% bovine calf serum, 4 mM glutamine, 100 units/mL penicillin, 100 μg/mL streptomycin and 0.75 mM G1418) at 37° C., 5% CO2. Twenty-four hours prior to assay, cells were seeded into 384-well black wall microtiter plates coated with poly-D-lysine. Just prior to assay, media was aspirated and cells dye-loaded (25 μL/well) with 3 μM Fluo-4/0.01% pluronic acid in assay buffer (Hank's Balanced Saline Solution (HBSS)): 150 mM NaCl, 5 mM KCl, 1 mM CaCl2, 1 mM MgCl2, plus 20 mM N-2-Hydroxyethylpiperazine-N′-2-ethanesulfonic acid (HEPES), pH 7.4, 0.1% bovine serum albumin (BSA) and 2.5 mM probenicid) for 1 hour in 5% CO2 at 37° C. After excess dye was discarded, cells were washed in assay buffer and layered with a final volume equal to 30 μL/well. Basal fluorescence is monitored in a fluorometric imaging plate reader (FLIPR) (Molecular Devices, Sunnyvale, Calif.) with an excitation wavelength of 488 nm and an emission range of 500 to 560 nm. Laser excitation energy was adjusted so that basal fluorescence readings were approximately 10,000 relative fluorescent units. Cells were stimulated with an EC20 or an EC80 concentration of glutamate in the presence of a compound to be tested, both diluted in assay buffer, and relative fluorescent units were measured at defined intervals (exposure=0.6 sec) over a 3 min period at room temperature. Basal readings derived from negative controls were subtracted from all samples. Maximum change in fluorescence was calculated for each well. Concentration-response curves derived from the maximum change in fluorescence were analyzed by nonlinear regression (Hill equation). A negative modulator can be identified from these concentration-response curves if a compound produces a concentration dependent inhibition of the EC80 glutamate response. […] Examples 11-163 also were tested in the above assay.
A positive modulator can be identified from these concentration-response curves if a compound produces a concentration dependent increase in the EC20 glutamate response.

T1 sequence (P31424 21-1171 isoform P31424-2 limits assumed): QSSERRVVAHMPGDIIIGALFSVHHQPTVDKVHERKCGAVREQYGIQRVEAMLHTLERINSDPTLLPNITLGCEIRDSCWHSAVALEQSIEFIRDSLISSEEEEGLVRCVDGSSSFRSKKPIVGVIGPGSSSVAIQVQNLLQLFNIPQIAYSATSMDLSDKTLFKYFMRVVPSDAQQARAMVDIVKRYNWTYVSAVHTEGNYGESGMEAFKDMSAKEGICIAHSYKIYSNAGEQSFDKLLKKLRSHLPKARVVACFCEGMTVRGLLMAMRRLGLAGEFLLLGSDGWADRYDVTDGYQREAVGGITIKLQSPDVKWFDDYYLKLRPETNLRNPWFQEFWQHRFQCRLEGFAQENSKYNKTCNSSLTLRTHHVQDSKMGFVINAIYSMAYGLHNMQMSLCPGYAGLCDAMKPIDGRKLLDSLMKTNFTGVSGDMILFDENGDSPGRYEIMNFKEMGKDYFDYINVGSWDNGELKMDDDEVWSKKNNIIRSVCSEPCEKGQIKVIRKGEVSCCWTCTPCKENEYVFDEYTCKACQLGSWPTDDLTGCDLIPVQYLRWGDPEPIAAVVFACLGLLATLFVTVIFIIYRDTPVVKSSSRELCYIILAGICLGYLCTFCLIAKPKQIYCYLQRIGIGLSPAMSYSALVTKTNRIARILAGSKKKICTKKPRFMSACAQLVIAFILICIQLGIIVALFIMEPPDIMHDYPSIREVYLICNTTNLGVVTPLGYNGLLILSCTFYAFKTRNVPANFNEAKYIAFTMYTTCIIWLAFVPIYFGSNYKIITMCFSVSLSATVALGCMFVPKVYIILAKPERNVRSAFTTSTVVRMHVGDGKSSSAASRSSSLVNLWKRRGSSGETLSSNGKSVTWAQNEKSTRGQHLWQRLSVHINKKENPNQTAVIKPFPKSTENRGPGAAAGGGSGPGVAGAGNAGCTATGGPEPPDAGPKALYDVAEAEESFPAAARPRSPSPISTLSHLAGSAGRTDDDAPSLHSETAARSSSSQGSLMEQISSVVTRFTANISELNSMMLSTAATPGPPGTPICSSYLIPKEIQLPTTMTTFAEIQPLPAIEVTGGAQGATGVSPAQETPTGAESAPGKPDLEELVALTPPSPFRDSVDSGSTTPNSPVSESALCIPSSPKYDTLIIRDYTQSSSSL

| Compound | Emax [%] |
| --- | --- |
| Cc1cnc(C(=O)NC23CC4CC(C2)CC(NC(=O)c2ccn(C)n2)(C4)C3)cn1 [Example 18, 5-Methyl-pyrazine-2-carboxylic acid {3-[(1-methyl-1H-pyrazole-3-carbonyl)-amino]-adamantan-1-yl}-amide] | 63 to 99 |
| Cc1cccc(C(=O)NC23CC4CC(C2)CC(NC(=O)c2cccc(C(C)(C)O)n2)(C4)C3)n1 [Example 144, 6-Methyl-pyridine-2-carboxylic acid (3-{[6-(1-hydroxy-1-methyl-ethyl)-pyridine-2-carbonyl]-amino}-adamantan-1-yl)-amide] | 70 to 99 |
| Cc1cccc(C(=O)NC23CC4CC(C2)CC(NC(=O)c2ncccc2F)(C4)C3)n1 [Example 129, 6-Methyl-pyridine-2-carboxylic acid {3-[(3-fluoro-pyridine-2-carbonyl)-amino]-adamantan-1-yl}-amide] | 70 to 99 |
| Cc1cncc(C(=O)NC23CC4CC(C2)CC(NC(=O)c2cc(C(F)(F)F)ccc2F)(C4)C3)n1 [Example 169, 6-Methyl-pyrazine-2-carboxylic acid [3-(2-fluoro-5-trifluoromethyl-benzoylamino)-adamantan-1-yl]-amide] | 63 to 99 |
| O=C(NC12CC3CC(C1)CC(NC(=O)c1ccc(F)cn1)(C3)C2)c1ccccn1 [Example 111, 5-Fluoro-pyridine-2-carboxylic acid {3-[(pyridine-2-carbonyl)-amino]-adamantan-1-yl}-amide] | 70 to 99 |
| Cc1cncc(C(=O)NC23CC4CC(C2)CC(NC(=O)c2cc(Cl)ccc2F)(C4)C3)n1 [Example 161, 6-Methyl-pyrazine-2-carboxylic acid [3-(5-chloro-2-fluoro-benzoylamino)-adamantan-1-yl]-amide] | 70 to 99 |
| Cc1cccc(C(=O)NC23CC4CC(C2)CC(NC(=O)c2ncccn2)(C4)C3)n1 [Example 121, Pyrimidine-2-carboxylic acid {3-[(6-methyl-pyridine-2-carbonyl)-amino]-adamantan-1-yl}-amide] | 70 to 99 |
| Cc1cccc(C(=O)NC23CC4CC(C2)CC(NC(=O)c2cccc(C)c2)(C4)C3)c1 [Example 16, N,N′-(1,3-adamantylene)bis(3-menthylbenzamide)] | 63 to 99 |
| O=C(NC12CC3CC(C1)CC(NC(=O)c1ccnc(C(F)(F)F)n1)(C3)C2)c1ccccn1 [Example 112, 2-Trifluoromethyl-pyrimidine-4-carboxylic acid {3-[(pyridine-2-carbonyl)-amino]-adamantan-1-yl}-amide] | 70 to 99 |
| Cc1cccc(C(=O)NC23CC4CC(C2)CC(NC(=O)c2coc(C)n2)(C4)C3)n1 [Example 29, 6-Methyl-pyridine-2-carboxylic acid {3-[(2-methyl-oxazole-4-carbonyl)-amino]-adamantan-1-yl}-amide] | 63 to 99 |
| Cc1cccc(C(=O)NC23CC4CC(C2)CC(NC(=O)c2cn5ccccc5n2)(C4)C3)n1 [Example 52, Imidazo[1,2-a]pyridine-2-carboxylic acid {3-[(6-methyl-pyridine-2-carbonyl)-amino]-adamantan-1-yl}-amide] | 63 to 99 |
| Cc1cccc(C(=O)NC23CC4CC(C2)CC(NC(=O)c2nccc(C)n2)(C4)C3)n1 [Example 141, 4-Methyl-pyrimidine-2-carboxylic acid {3-[(6-methyl-pyridine-2-carbonyl)-amino]-adamantan-1-yl}-amide] | 70 to 99 |
| Cc1cccc(C(=O)NC23CC4CC(CC(NC(=O)c5ccncc5)(C4)C2)C3)n1 [Example 116, 6-Methyl-pyridine-2-carboxylic acid {3-[(pyridine-4-carbonyl)-amino]-adamantan-1-yl}-amide] | 70 to 99 |
| Cc1cc(C(=O)NC23CC4CC(CC(NC(=O)c5ccccn5)(C4)C2)C3)nc(C)n1 [Example 106, 2,6-Dimethyl-pyrimidine-4-carboxylic acid {3-[(pyridine-2-carbonyl)-amino]-adamantan-1-yl}-amide] | 70 to 99 |
| Cc1cccc(C(=O)NC23CC4CC(CC(NC(=O)c5cccnn5)(C4)C2)C3)n1 [Example 24, Pyridazine-3-carboxylic acid {3-[(6-methyl-pyridine-2-carbonyl)-amino]-adamantan-1-yl}-amide] | 63 to 99 |
| Cc1cccc(C(=O)NC23CC4CC(CC(NC(=O)c5cccnc5)(C4)C2)C3)n1 [Example 115, 6-Methyl-pyridine-2-carboxylic acid {3-[(pyridine-3-carbonyl)-amino]-adamantan-1-yl}-amide] | 70 to 99 |
| Cc1cccc(C(=O)NC23CC4CC(C2)CC(NC(=O)c2cc(C)nc(C)n2)(C4)C3)n1 [Example 118, 2,6-Dimethyl-pyrimidine-4-carboxylic acid {3-[(6-methyl-pyridine-2-carbonyl)-amino]-adamantan-1-yl}-amide] | 70 to 99 |
| Cc1cccc(C(=O)NC23CC4CC(C2)CC(NC(=O)c2cn5cc(Cl)ccc5n2)(C4)C3)n1 [Example 50, 6-Chloro-imidazo[1,2-a]pyridine-2-carboxylic acid {3-[(6-methyl-pyridine-2-carbonyl)-amino]-adamantan-1-yl}-amide] | 63 to 99 |
| Cc1cccc(C(=O)NC23CC4CC(C2)CC(NC(=O)c2ccnc(C(F)(F)F)n2)(C4)C3)n1 [Example 140, 2-Trifluoromethyl-pyrimidine-4-carboxylic acid {3-[(6-methyl-pyridine-2-carbonyl)-amino]-adamantan-1-yl}-amide] | 70 to 99 |

Next, values leading:

| Emax [%] | Compound |
| --- | --- |
| 63 to 99 | Cc1cccc(C(=O)NC23CC4CC(C2)CC(NC(=O)c2cccc(N5CCC[C@H]5CO)n2)(C4)C3)n1 [Example 237, 6-((S)-2-Hydroxymethyl-pyrrolidin-1-yl)-pyridine-2-carboxylic acid {3-[(6-methyl-pyridine-2-carbonyl)-amino]-adamantan-1-yl}-amide] |
| 63 to 99 | CC(=O)NCCNc1cccc(C(=O)NC23CC4CC(CC(NC(=O)c5cccc(F)c5)(C4)C2)C3)n1 [Example 244, 6-(2-Acetylamino-ethylamino)-pyridine-2-carboxylic acid [3-(3-fluoro-benzoylamino)-adamantan-1-yl]-amide] |
| 63 to 99 | O=C(NC12CC3CC(C1)CC(NC(=O)c1cccc(N4CCC[C@H]4CO)n1)(C3)C2)c1ccccn1 [Example 228, 6-((S)-2-Hydroxymethyl-pyrrolidin-1-yl)-pyridine-2-carboxylic acid {3-[(pyridine-2-carbonyl)-amino]-adamantan-1-yl}-amide] |
| 63 to 99 | CN(C)C1CCN(c2cccc(C(=O)NC34CC5CC(CC(NC(=O)c6cccc(F)c6)(C5)C3)C4)n2)C1 (stereo not drawn) [Example 217, 6-(3-Dimethylamino-pyrrolidin-1-yl)-pyridine-2-carboxylic acid [3-(3-fluoro-benzoylamino)-adamantan-1-yl]-amide] |
| 63 to 99 | COCCN(C)c1cccc(C(=O)NC23CC4CC(CC(NC(=O)c5cccc(C)n5)(C4)C2)C3)n1 [Example 207, 6-[(2-Methoxy-ethyl)-methyl-amino]-pyridine-2-carboxylic acid{3-[(6-methyl-pyridine-2-carbonyl)-amino]-adamantan-1-yl}-amide] |
| 63 to 99 | Cc1cccc(C(=O)NC23CC4CC(C2)CC(NC(=O)c2cccc(NCCO)n2)(C4)C3)n1 [Example 208, 6-(2-Hydroxy-ethylamino)-pyridine-2-carboxylic acid {3-[(6-methyl-pyridine-2-carbonyl)-amino]-adamantan-1-yl}-amide] |
| 63 to 99 | O=C(NC12CC3CC(C1)CC(NC(=O)c1cccc(N4CCC[C@@H]4CO)n1)(C3)C2)c1ccccn1 [Example 229, 6-((R)-2-Hydroxymethyl-pyrrolidin-1-yl)-pyridine-2-carboxylic acid {3-[(pyridine-2-carbonyl)-amino]-adamantan-1-yl}-amide] |
| 63 to 99 | Cc1cccc(C(=O)NC23CC4CC(C2)CC(NC(=O)c2cccc(N5CCC(O)C5)n2)(C4)C3)n1 (stereo not drawn) [Example 205, 6-(3-Hydroxy-pyrrolidin-1-yl)-pyridine-2-carboxylic acid{3-[(6-methyl-pyridine-2-carbonyl)-amino]-adamantan-1-yl}-amide] |
| 63 to 99 | Cc1nccc(C(=O)NC23CC4CC(C2)CC(NC(=O)c2nccc(C(F)(F)F)n2)(C4)C3)n1 [Example 192, 4-Trifluoromethyl-pyrimidine-2-carboxylic acid {3-[(2-methyl-pyrimidine-4-carbonyl)-amino]-adamantan-1-yl}-amide] |

same assay, conditions: positive modulation, increase in EC20 glutamate response

| EC50 [nM] | maximum modulation [%] | Compound |
| --- | --- | --- |
| 300 | 170 | Cc1cncc(C(=O)NC23CC4CC(CC(NC(=O)c5cc(-c6ccc(F)cc6)ncn5)(C4)C2)C3)n1 [Example 256, 6-(4-Fluoro-phenyl)-pyimidine-4-carboxylic acid {3-[(6-methyl-pyrazine-2-carbonyl)-aminpo]-adamantan-1-yl}-amide] |
